PubChem BioAssay AID196 (DTP/NCI, 2004)
“And” between values parts separate entries of the source, which are not always exact repeats. Identical values can stand only once. Inconclusive results and toxic doses are left out. *1 amine or outer side, *2 acyl side, *3 side chain or, on linkers, in order; H or OH if unused. Where a SMILES comes first, the peptide text is derived from it. Bridges are numbered along the chain shown (N, C = ends). Roman numbers before positions name the chains, in order. [ ]: non-standard residue; d: D form. Actinocin(9to1) = Cc1c2oc3c(C)ccc(C(=O)[*:1])c3nc-2c(C(=O)[*:2])c(N)c1=O; aThr = C[C@H](O)[C@H](N)C(=O)O; NMeV = CN[C@H](C(=O)O)C(C)C; Sar = CNCC(=O)O

System: BDF1 mice, intracerebral B16 melanoma, median survival T/C
Experiment: NCI In Vivo Anticancer Drug Screen. Data for tumor model B16 Melanoma (intracerebral) in B6D2F1 (BDF1) mice
Conditions: endpoint: median survival time, higher = longer survival
Description: The antitumor activity of compounds was measured in mice bearing transplantable tumors. Survival or tumor size were measured and the results are expressed as the measurement made in the treated group (T) divided by the measurement made in the vehicle treated control group (C). The tumor model used in this assay is B16 Melanoma (intracerebral) in B6D2F1 (BDF1) mice

[1] = dose: 16.0 mg/kg/injection, schedule: Q01DX005 (ip), vehicle: saline with Tween-80
[2] = dose: 32.0 mg/kg/injection, schedule: Q01DX005 (ip), vehicle: saline with Tween-80
[3] = dose: 64.0 mg/kg/injection, schedule: Q01DX005 (ip), vehicle: saline with Tween-80
[4] = dose: 128.0 mg/kg/injection, schedule: Q01DX005 (ip), vehicle: saline with Tween-80
[5] = dose: 26.7 mg/kg/injection, schedule: Q01DX001 (ip), vehicle: Klucel (hydroxypropylcellulose) (HPC)
[6] = dose: 0.13 mg/kg/injection, schedule: Q01DX009 (ip), vehicle: saline
[7] = dose: 1.0 mg/kg/injection, schedule: Q01DX009 (ip), vehicle: saline
[8] = dose: 2.0 mg/kg/injection, schedule: Q01DX009 (ip), vehicle: saline
[9] = dose: 2.0 mg/kg/injection, schedule: Q01DX009 (ip), vehicle: water

With `CCC(C)N(C)/N=N/c1nc[nH]c1C(N)=O` (stereo unspecified) the T/C [1] was 102 % of control, the T/C [2] was 106 % of control and the T/C [3] was 112 % of control. For the same molecule, the T/C [4] was 107 % of control.
`CCN(CC)c1ccc2cc3ccc(=[N+](CC)CC)cc-3oc2c1` was tested, and the T/C (dose: 4.0 mg/kg/injection, schedule: Q01DX005 (ip), vehicle: saline) was 100 % of control, the T/C (dose: 4.0 mg/kg/injection, schedule: Q01DX005 (ip), vehicle: suspension in saline) was 93 % of control and the T/C (dose: 8.0 mg/kg/injection, schedule: Q01DX005 (ip), vehicle: saline) was 98 % of control. For the same molecule, the T/C (dose: 8.0 mg/kg/injection, schedule: Q01DX005 (ip), vehicle: suspension in saline) was 113 % of control.
With `O=NN(CCF)C(=O)N[C@H]1CCCC[C@H]1O` the T/C [5] was 151 % of control, the T/C (dose: 40.0 mg/kg/injection, schedule: Q01DX001 (ip), vehicle: Klucel (hydroxypropylcellulose) (HPC)) was 155 % of control and the T/C (dose: 60.0 mg/kg/injection, schedule: Q01DX001 (ip), vehicle: Klucel (hydroxypropylcellulose) (HPC)) was 330 % of control.
In the case of `N=C(N)SCc1c2ccccc2c(CSC(=N)N)c2ccccc12`, the T/C (dose: 2.5 mg/kg/injection, schedule: Q01DX005 (ip), vehicle: Klucel (hydroxypropylcellulose) (HPC)) is reported as 107 % of control and 111 % of control, the T/C (dose: 5.0 mg/kg/injection, schedule: Q01DX005 (ip), vehicle: Klucel (hydroxypropylcellulose) (HPC)) is reported as 90 % of control and 92 % of control and the T/C (dose: 10.0 mg/kg/injection, schedule: Q01DX005 (ip), vehicle: Klucel (hydroxypropylcellulose) (HPC)) is reported as 97 % of control and 103 % of control. The T/C (dose: 20.0 mg/kg/injection, schedule: Q01DX005 (ip), vehicle: Klucel (hydroxypropylcellulose) (HPC)) was 93 % of control and 96 % of control.
`CN(C)N=Nc1ccc([N+](=O)[O-])cc1C(N)=O` was tested, and the T/C [1] was 100 % of control, the T/C [2] was 105 % of control and the T/C [3] was 110 % of control. For the same molecule, the T/C [4] was 107 % of control.
With `CC[C@]1(O)C[C@H]2CN(CCc3c([nH]c4ccccc34)[C@@](C(=O)OC)(c3cc4c(cc3OC)N(C=O)[C@H]3[C@@](O)(C(=O)OC)[C@H](OC(C)=O)[C@]5(CC)C=CCN6CC[C@]43[C@@H]65)C2)C1` the T/C (dose: 0.02 mg/kg/injection, schedule: Q01DX009 (ip), vehicle: saline) was 96 % of control, the T/C (dose: 0.03 mg/kg/injection, schedule: Q01DX009 (ip), vehicle: saline) was 96 % of control and the T/C (dose: 0.06 mg/kg/injection, schedule: Q01DX009 (ip), vehicle: saline) was 92 % of control and 95 % of control. The T/C [6] was 117 % of control and 108 % of control and the T/C (dose: 0.26 mg/kg/injection, schedule: Q01DX009 (ip), vehicle: saline) was 100 % of control.
With `O=CC(NC(=O)N(CCCl)N=O)C(O)C(O)C(O)CO` (stereo unspecified) the T/C [7] was 97 % of control, the T/C [8] was 99 % of control and the T/C (dose: 4.0 mg/kg/injection, schedule: Q01DX009 (ip), vehicle: saline) was 111 % of control. For the same molecule, the T/C (dose: 7.5 mg/kg/injection, schedule: Q01DX001 (ip), vehicle: saline with Tween-80) was 92 % of control, the T/C (dose: 8.0 mg/kg/injection, schedule: Q01DX009 (ip), vehicle: saline) was 117 % of control and the T/C (dose: 15.0 mg/kg/injection, schedule: Q01DX001 (ip), vehicle: saline with Tween-80) was 119 % of control. The T/C (dose: 17.8 mg/kg/injection, schedule: Q01DX001 (ip), vehicle: Klucel (hydroxypropylcellulose) (HPC)) was 120 % of control, the T/C [5] was 118 % of control and the T/C (dose: 30.0 mg/kg/injection, schedule: Q01DX001 (ip), vehicle: saline with Tween-80) was 103 % of control.
In the case of `COc1cccc2c1C(=O)c1c(O)c3c(c(O)c1C2=O)C[C@@](O)(C(C)=O)C[C@@H]3OC1CC(N)C(O)C(C)O1` (stereo partly specified), the T/C [6] is reported as 104 % of control, the T/C (dose: 0.25 mg/kg/injection, schedule: Q01DX009 (ip), vehicle: saline) is reported as 116 % of control and 87 % of control and 109 % of control and the T/C (dose: 0.25 mg/kg/injection, schedule: Q03HX008 (ip), vehicle: saline) is reported as 92 % of control. The T/C (dose: 0.5 mg/kg/injection, schedule: Q01DX009 (ip), vehicle: saline) was 91 % of control and 104 % of control and 109 % of control, the T/C (dose: 0.5 mg/kg/injection, schedule: Q01DX009 (ip), vehicle: water) was 90 % of control and the T/C (dose: 0.5 mg/kg/injection, schedule: Q03HX008 (ip), vehicle: saline) was 100 % of control. The T/C [7] was 100 % of control, the T/C (dose: 1.0 mg/kg/injection, schedule: Q01DX009 (ip), vehicle: water) was 109 % of control and the T/C (dose: 1.0 mg/kg/injection, schedule: Q03HX008 (ip), vehicle: saline) was 100 % of control. For the same molecule, the T/C [8] was 100 % of control and the T/C [9] was 100 % of control.
For `Nc1ncnc2c1ncn2C1OC(COP(=O)(O)O)C(O)C1O` (stereo unspecified), the T/C (dose: 1600.0 mg/kg/injection, schedule: Q01DX009 (ip), vehicle: saline) was 99 % of control and 102 % of control.
In the case of `Cc1c2oc3c(C)ccc(C(=O)N[C@@H]4C(=O)N[C@H](C(C)C)C(=O)N5CCC[C@H]5C(=O)N(C)CC(=O)N(C)[C@@H](C(C)C)C(=O)O[C@H]4C)c3nc-2c(C(=O)N[C@@H]2C(=O)N[C@H](C(C)C)C(=O)N3CCC[C@H]3C(=O)N(C)CC(=O)N(C)[C@@H](C(C)C)C(=O)O[C@H]2C)c(N)c1=O` (I: [aThr][dV]P[Sar][NMeV] / II: [aThr][dV]P[Sar][NMeV]; ester I:1-I:C, II:1-II:C; linker I:N-II:N via Actinocin(9to1)), the T/C (dose: 0.02 mg/kg/injection, schedule: Q01DX009 (ip), vehicle: water) is reported as 118 % of control and the T/C (dose: 0.05 mg/kg/injection, schedule: Q01DX009 (ip), vehicle: water) is reported as 109 % of control.
In the case of `Cc1[nH]c(=O)[nH]c(=O)c1N(CCF)CCCl`, the T/C [9] is reported as 107 % of control, the T/C (dose: 4.0 mg/kg/injection, schedule: Q01DX009 (ip), vehicle: water) is reported as 104 % of control and the T/C (dose: 8.0 mg/kg/injection, schedule: Q01DX009 (ip), vehicle: water) is reported as 112 % of control. The T/C (dose: 16.0 mg/kg/injection, schedule: Q01DX009 (ip), vehicle: water) was 104 % of control and the T/C (dose: 32.0 mg/kg/injection, schedule: Q01DX009 (ip), vehicle: water) was 102 % of control.
With `CCC(=O)O[C@H]1CC[C@H]2[C@@H]3CC[C@H]4CC(=O)[C@H](C)C[C@]4(C)[C@H]3CC[C@]12C` the T/C (dose: 8.0 mg/kg/injection, schedule: Q01DX009 (ip), vehicle: Klucel (hydroxypropylcellulose) (HPC)) was 100 % of control, the T/C (dose: 16.0 mg/kg/injection, schedule: Q01DX009 (ip), vehicle: Klucel (hydroxypropylcellulose) (HPC)) was 94 % of control and the T/C (dose: 32.0 mg/kg/injection, schedule: Q01DX009 (ip), vehicle: Klucel (hydroxypropylcellulose) (HPC)) was 105 % of control. For the same molecule, the T/C (dose: 64.0 mg/kg/injection, schedule: Q01DX009 (ip), vehicle: Klucel (hydroxypropylcellulose) (HPC)) was 100 % of control, the T/C (dose: 128.0 mg/kg/injection, schedule: Q01DX009 (ip), vehicle: Klucel (hydroxypropylcellulose) (HPC)) was 101 % of control and the T/C (dose: 256.0 mg/kg/injection, schedule: Q01DX009 (ip), vehicle: Klucel (hydroxypropylcellulose) (HPC)) was 103 % of control. For the same molecule, the T/C (dose: 512.0 mg/kg/injection, schedule: Q01DX009 (ip), vehicle: Klucel (hydroxypropylcellulose) (HPC)) was 94 % of control.
For `CN(C)N=Nc1ccnc2ccc(I)cc12`, the T/C (dose: 3.12 mg/kg/injection, schedule: Q01DX009 (ip), vehicle: other) was 112 % of control, the T/C (dose: 6.25 mg/kg/injection, schedule: Q01DX009 (ip), vehicle: other) was 110 % of control and the T/C (dose: 12.5 mg/kg/injection, schedule: Q01DX009 (ip), vehicle: other) was 95 % of control. The T/C (dose: 25.0 mg/kg/injection, schedule: Q01DX009 (ip), vehicle: other) was 110 % of control and the T/C (dose: 50.0 mg/kg/injection, schedule: Q01DX009 (ip), vehicle: other) was 109 % of control.
In the case of `CC1CCC(NC(=O)N(CCCl)N=O)CC1` (stereo unspecified), the T/C (dose: 0.5 mg/kg/injection, schedule: Q01DX009 (ip), vehicle: Klucel (hydroxypropylcellulose) (HPC)) is reported as 105 % of control, the T/C (dose: 1.0 mg/kg/injection, schedule: Q01DX009 (ip), vehicle: Klucel (hydroxypropylcellulose) (HPC)) is reported as 102 % of control and the T/C (dose: 2.0 mg/kg/injection, schedule: Q01DX009 (ip), vehicle: Klucel (hydroxypropylcellulose) (HPC)) is reported as 111 % of control. The T/C (dose: 4.0 mg/kg/injection, schedule: Q01DX009 (ip), vehicle: Klucel (hydroxypropylcellulose) (HPC)) was 117 % of control, the T/C (dose: 6.48 mg/kg/injection, schedule: Q01DX001 (ip), vehicle: other) was 106 % of control and the T/C (dose: 10.8 mg/kg/injection, schedule: Q01DX001 (ip), vehicle: other) was 117 % of control. For the same molecule, the T/C (dose: 50.0 mg/kg/injection, schedule: Q01DX001 (ip), vehicle: other) was 118 % of control.
